The source of these data is patent publication US7094781B2, “Sulfamides and their use as endothelin receptor antagonists” (Actelion Pharmaceuticals Ltd., priority 2000, dated 2006).

Assay [1] concerns the target T1, ETB receptors (rat tracheal rings) (Rattus norvegicus, UniProt P21451).
T1 construct: The thoracic aorta or trachea were excised, dissected and cut in 3–5 mm rings; from tissue; host or cells: tracheal rings of adult Wistar rats, epithelium removed
T1 sequence (P21451 27-442): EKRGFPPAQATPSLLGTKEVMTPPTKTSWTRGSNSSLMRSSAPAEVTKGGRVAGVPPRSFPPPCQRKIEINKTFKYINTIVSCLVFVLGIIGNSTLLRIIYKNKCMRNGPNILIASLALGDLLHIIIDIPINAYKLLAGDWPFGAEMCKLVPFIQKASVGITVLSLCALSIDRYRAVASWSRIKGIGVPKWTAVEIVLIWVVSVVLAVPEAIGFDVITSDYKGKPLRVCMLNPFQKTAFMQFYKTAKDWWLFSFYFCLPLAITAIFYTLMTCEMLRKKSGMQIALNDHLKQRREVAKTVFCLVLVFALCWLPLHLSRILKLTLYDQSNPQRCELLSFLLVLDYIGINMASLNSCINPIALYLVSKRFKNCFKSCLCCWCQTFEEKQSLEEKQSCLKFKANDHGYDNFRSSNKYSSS
Nature of the assay: Inhibition of sarafotoxin S6c-induced contraction on isolated rat tracheal rings.
Protocol: (§1) 2) Inhibition of Endothelin-induced Contractions on Isolated Rat Aortic Rings (ETA Receptors) and Rat Tracheal Rings (ETB Receptors):
(§2) The functional inhibitory potency of the endothelin antagonists was assessed by their inhibition of the contraction induced by endothelin-1 on rat aortic rings (ETA receptors) and of the contraction induced by sarafotoxin S6c on rat tracheal rings (ETB receptors). Adult Wistar rats were anesthetized and exsanguinated. The thoracic aorta or trachea were excised, dissected and cut in 3–5 mm rings. The endothelium/epithelium was removed by gentle rubbing of the intimal surface. […] The rings were connected to force transducers and isometric tension was recorded (EMKA Technologies SA, Paris, France). The rings were stretched to a resting tension of 3 g (aorta) or 2 g (trachea). […] The functional inhibitory potency of the test compound was assessed by calculating the concentration ratio, i.e. the shift to the right of the EC50 induced by different concentrations of test compound. EC50 is the concentration of endothelin needed to get a half-maximal contraction, pA2 is the negative logarithm of the antagonist concentration which induces a two-fold shift in the EC50 value.

Assay [2] has as its target T2, human recombinant ETB receptor (Homo sapiens, UniProt P24530).
T2 construct: expressed in transfected cells; host or cells: CHO cells (microsomal membranes)
T2 sequence (P24530 27-442): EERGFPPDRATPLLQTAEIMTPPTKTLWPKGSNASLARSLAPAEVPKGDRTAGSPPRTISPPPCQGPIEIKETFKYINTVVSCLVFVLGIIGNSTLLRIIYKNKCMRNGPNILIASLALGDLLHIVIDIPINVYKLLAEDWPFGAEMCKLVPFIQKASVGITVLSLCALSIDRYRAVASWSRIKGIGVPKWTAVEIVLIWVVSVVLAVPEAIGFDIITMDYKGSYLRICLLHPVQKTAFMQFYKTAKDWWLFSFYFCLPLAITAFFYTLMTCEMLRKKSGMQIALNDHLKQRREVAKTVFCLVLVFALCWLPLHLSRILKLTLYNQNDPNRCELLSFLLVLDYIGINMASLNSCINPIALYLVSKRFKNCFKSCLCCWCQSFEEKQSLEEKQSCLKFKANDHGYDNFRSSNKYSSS
Nature of the assay: Inhibition of [125I]ET-1 binding to membranes from CHO cells carrying human ETB receptors.

For assay [3], the target named is T3, ETA receptors (rat aortic rings) (Rattus norvegicus, UniProt P26684).
T3 construct: The thoracic aorta or trachea were excised, dissected and cut in 3–5 mm rings; from tissue; host or cells: thoracic aorta rings of adult Wistar rats, endothelium removed
T3 sequence (P26684 21-426): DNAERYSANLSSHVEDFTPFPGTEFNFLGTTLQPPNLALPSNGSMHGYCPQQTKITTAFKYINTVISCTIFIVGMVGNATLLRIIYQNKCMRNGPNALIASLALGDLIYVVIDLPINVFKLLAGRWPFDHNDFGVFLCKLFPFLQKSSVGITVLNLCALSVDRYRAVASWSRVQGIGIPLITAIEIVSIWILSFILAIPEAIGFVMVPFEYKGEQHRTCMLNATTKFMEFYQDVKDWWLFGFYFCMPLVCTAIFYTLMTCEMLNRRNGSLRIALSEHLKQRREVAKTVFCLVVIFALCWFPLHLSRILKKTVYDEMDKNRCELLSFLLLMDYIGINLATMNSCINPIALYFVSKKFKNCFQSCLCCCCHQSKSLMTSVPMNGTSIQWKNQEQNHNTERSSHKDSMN
As to the kind of experiment: Inhibition of endothelin-1-induced contraction on isolated rat aortic rings.
Protocol: as §1, §2

In assay [4] the target is T4, human recombinant ETA receptor (Homo sapiens, UniProt P25101).
T4 construct: expressed in transfected cells; host or cells: CHO cells (microsomal membranes)
T4 sequence (P25101 21-427): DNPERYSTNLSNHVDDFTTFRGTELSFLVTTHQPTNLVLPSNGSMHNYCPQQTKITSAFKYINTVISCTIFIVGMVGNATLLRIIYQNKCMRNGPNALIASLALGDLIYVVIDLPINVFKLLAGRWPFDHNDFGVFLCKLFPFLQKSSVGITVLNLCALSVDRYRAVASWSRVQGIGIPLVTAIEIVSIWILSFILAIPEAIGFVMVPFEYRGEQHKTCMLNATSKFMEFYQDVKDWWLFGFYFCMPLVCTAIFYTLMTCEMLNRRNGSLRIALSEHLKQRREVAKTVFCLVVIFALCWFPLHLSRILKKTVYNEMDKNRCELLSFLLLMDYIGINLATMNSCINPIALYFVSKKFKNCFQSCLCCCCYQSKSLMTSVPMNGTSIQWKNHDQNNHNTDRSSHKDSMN
As to the kind of experiment: Inhibition of [125I]ET-1 binding to membranes from CHO cells carrying human ETA receptors.

The mark [5] stands for this setting: read-out: pA2 value ETA (converted).

The structures appear in SMILES notation. pIC50: −log10 of the molar value. Where two headings read alike, the source gives them in different places.

As to `O=S(=O)(NCc1ccccn1)Nc1ncnc(OCCOc2ncc(Br)cn2)c1-c1ccc(Cl)cc1` [Example 18], the values for the Kb in assay [1] and in assay [3] (setting [5]) were greater than 10000 nM and 7.08 nM, respectively. The pIC50 in assay [2] is 5.48; in assay [4] it was 8.07.
In the case of `CSc1cnc(OCCOc2ncnc(NS(=O)(=O)NCc3ccccc3)c2-c2ccc(Br)cc2)nc1` [Example 102], the Kb is 174 nM in assay [1] and 3.98 nM in assay [3]. Moreover, the figures for the pIC50 in assay [2] and in assay [4] were 7.19 and 9.34, respectively.
Take `COc1ccccc1Oc1c(NS(=O)(=O)NCc2ccccc2)nc(SC)nc1OCCO` [Example 203, benzylsulfamic acid [6-(2-hydroxy-ethoxy)-5-(2-methoxy-phenoxy)-2-methylsulfanyl-pyrimidin-4-yl]-amide]: the Kb in assay [1] (rat tracheal rings, contraction induced by sarafotoxin S6c, 10 min incubation, read-out: pA2 value ETB (converted)) was 1450 nM; in assay [3] (setting [5]), 20.4 nM.
